{"source": "patent US5273991A", "about": "“Imidazole-containing compositions and methods of use thereof analogs of distamycin” (Research Corporation Technologies, Inc., priority 1992, dated 1993)", "key": {"[1]": {"system": "human chronic myelogenous leukemic K562 cells", "assay": "growth inhibition of K562 cells (MTT viability assay)", "type": "cell-based", "conditions": "1 hour drug exposure at 37° C.; 5-6 days; MTT", "procedure": "The ability of the compounds of the present invention to inhibit the growth of human chronic myelogenous leukemic K562 cells was determined as follows.\nThe incubation was terminated by centrifugation (5 minutes, 300 g) and the cells washed once with drug-free medium.\nFollowing the appropriate drug treatment, the cells were transferred to 96-well microtiter plates, 10^4 cells per well, 8 wells per sample. Plates were then kept in the dark at 37° C. in a humidified atmosphere containing 5% CO2. […] Following incubation of the plates of 5-6 days (to allow control cells to increase in the number by 10 fold) 20 μL of a 5 mg/mL solution of MTT in phosphate buffered saline was added to each well and the plates further incubated for 5 h. The plates were then centrifuged for 5 minutes at 300 g and the bulk of the medium pipetted from the cell pellet leaving 10-20 μL per well. 200 μL DMSO was added to each well and the samples agitated to ensure complete mixing. The optical density was then read at a wavelength of 550 nm on a Titertek Multiscan ELISA plate reader and the dose-response curve constructed."}, "poly(dA.dT)": {"system": "poly(dA.dT)", "assay": "circular dichroism (CD) titration, poly(dA.dT)", "type": "binding", "conditions": "for CD titration result in words: r' up to ~1.0", "procedure": "The DNA binding properties of the present compounds were assessed by circular dichroism (CD) titration experiments. Methods for CD titration can be found, for example, in Zimmer et al. (1986) Prog. Biophys. Molec. Biol 47, 31. The conformation of DNA can be readily determined by CD experiments, and for B-DNA, characteristic positive and negative Cotton effects are observed at 260 and 245 nm, respectively.\nThe interaction of Compounds 6-10 to a number of DNAs [calf thymus, poly(dA dT) and poly(dG dC)] were analyzed by CD titration studies. All the CD titration experiments were performed using identical procedures, concentrations of DNA, and increments of drug:DNA ratios (or `r`, i.e. moles of drug to moles of DNA base pairs). Therefore, the differences observed in the CD spectra for the titration of each of the compounds to the polydeoxynucleotides may be directly compared to reflect their DNA binding properties.\nAll experiments were performed with a continuous flow of nitrogen purging the polarimeter. A 1 mm path length jacketed cell was used and all experiments were done at room temperature. Initially, DNA [0.02 μ moles (base pairs), 130 μL] was placed in the cell and the spectrum of the DNA alone was collected. Aliquots of drug were added and the spectra collected. […] The scan parameters were set and standard for all experiments. The spectra were collected from 400 nm to 200 nm. The sensitivity was set at 1 mdeg and the scan speed was set at 20 nm per minute. Three scans were accumulated and automatically averaged by the computer. The λmax and ellipticity (mdeg) for each spectrum were collected from the raw scans and the final plots were smoothed by the noise reduction program on the computer. […] The induced CD band is presumably due to the uv absorption π to π^* transition of the drug in the drug:DNA complex. […] Therefore interaction of these drugs with DNA causes only minor conformational changes in the double helix."}, "calf thymus DNA": {"system": "calf thymus DNA", "assay": "ethidium displacement assay, calf thymus DNA", "type": "binding", "conditions": "± 0.02 × 10^5 M^-1, pH 7.4", "from_the_text": "(§1) The ethidium displacement assay is based on the fact that ethidium binding to DNA causes a large (approximately 25 fold) florescence enhancement as a result of the hydrophobic environment surrounding the ethidium molecule. Displacement of ethidium results in decreased fluorescence, and thus binding constants of drugs to DNA can be estimated and compared by measuring the loss of fluorescence as a function of added drug. The drug concentration which produces 50% inhibition of florescence is approximately inversely proportional to the apparent binding constant.\n(§2) The relative DNA binding constants (Kapp) of distamycin and Compounds 6-10 to calf thymus DNA, T4 coliphage DNA, poly(dAdT) and poly(dGdC) were determined using the ethidium displacement assay (Morgan et al., 1979). The Kapp of ethidium bromide (Debart et al., 1989) is included for comparison. 25 μL of a 2A260 DNA solution was added to 2 mL of ethidium bromide buffer (250 μL of 1.3 mM ethidium bromidestock, 314.9 mg Tris-HCl, 60.8 mg Tris base and 930/mg of Na2 EDTA.2H2 O in 250 ml H2 O) pH 7.4 and the maximum fluorescence was measured (excitation wavelength=546 nm, emission wavelength=600 nm) at ambient temperature.\n(§3) DNA solutions of 2A260 were prepared as follows: T4 coliphage DNA: 10 units of DNA were dissolved in 1 mL of 10 mM sodium phosphate (pH 7.1) and 0.25 mM EDTA buffer to give a 10A260 solution. 0.3 mL of the stock solution were diluted to 1.5 mL with 10 mM sodium phosphate (pH 7.1) and 0.25 mM EDTA buffer to give a 2A260 solution. Calf thymus DNA: 100 units of DNA were dissolved in 5 mL of 10 mM sodium phosphate (pH 7.1) and 0.25 mM EDTA buffer to give a 20A260 solution. 1.5 mL of the stock solution were diluted to 15 mL with 10 mM sodium phosphate (pH 7.1) and 0.25 mM EDTA buffer to give a 2A260 solution. Poly(dA-dT) and Poly(dG-dC) DNA: 100 units of DNA were dissolved in 10 mL of 10 mM sodium phosphate pH 7.1) and 0.25 mM EDTA buffer to give a 10A260 solution. 3 mL of the stock solution were diluted to 15 mL with 10 mM sodium phosphate (pH 7.1) and 0.25 mM EDTA buffer to give a 2A260 solution.\n(§4) Aliquots of 10 mM stock drug solution (1 mg of drug to be tested was dissolved with 1 mole equivalent of 0.1M HCl, and then diluted with appropriate volume of distilled water to make a 10 mM solution) were then added to the fluorescing solution and the florescence measured after each addition until a 50% reduction of fluorescence occurred. If the 10 mM stock solution lowered the % fluorescence too quickly, the stock solution was further diluted to 1 mM prior to titration. The apparent binding constant was then calculated from this equation: KEtBr [EtBr]=Kapp [drug], where [drug]=the concentration of drug at a 50% reduction of fluorescence and KEtBr [1×10^7 M^-1 for calf thymus and coliphage T4 DNA^18, 9.5×10^6 M^-1 for poly(dA.dT)^30, and 9.9×10^6 M^-1 for poly(dG.dC)^30 ] and [EtBr] were known. The concentration of ethidium bromide was 1.3 μM. The Kapp values are shown in Table I. In a separate experiment, the Kapp of Compound 5 for calf thymus DNA and poly[dGdC] were determined to be 0.3×10^5 M^-1 and 2.6×10^5 M^-1, respectively. The error in these measurements is ±[…]."}, "poly(dAdT)": {"target": "poly(dAdT)", "assay": "ethidium displacement assay, poly(dAdT)", "type": "binding", "conditions": "± 0.02 × 10^5 M^-1, pH 7.4", "from_the_text": "as §1, §2, §3, §4"}}, "data": [{"compound": "CN(C)CCNC(=O)c1nc(NC(=O)c2nc(NC(=O)c3ccc(N(CCCl)CCCl)cc3)cn2C)cn1C", "note": "[Compound 6, N-(N',N'-dimethylaminoethyl)-1-methyl-4-{4-[4,4-bis(2-chloroethyl)aminobenzamido]-1-methylimidazole-2-carboxamido}imidazole-2-carboxamide]", "values": [{"measurement": "IC50", "setting": "[1]", "value": 12.5, "unit": "µM"}, {"measurement": "induced negative CD band, ellipticity", "setting": "poly(dA.dT); 310 nm, r'=0.2", "value": 0.4, "unit": "mdeg"}, {"measurement": "induced positive CD band, ellipticity", "setting": "poly(dA.dT); 350 nm, r'=0.2", "value": 1.8, "unit": "mdeg"}, {"measurement": "isobestic point", "setting": "poly(dA.dT); poly(dA.dT)", "value": 315, "unit": "nm"}, {"measurement": "Association constant Kapp", "setting": "calf thymus DNA", "value": 456000, "unit": "M⁻¹"}, {"measurement": "Association constant Kapp", "setting": "poly(dAdT)", "value": 475000, "unit": "M⁻¹"}]}, {"compound": "CN(C)CCNC(=O)c1nc(NC(=O)c2nc(NC(=O)c3nc(NC(=O)c4ccc(N(CCCl)CCCl)cc4)cn3C)cn2C)cn1C", "note": "[Compound 7, N-(N',N'-dimethylaminoethyl)-1-methyl-4-{1-methyl-4-[4-(4,4-bis-(2-chloroethyl)aminobenzamido)-1-methylimidazole-2-carboxamido]imidazole-2-carboxamido}imidazole-2-carboxamide]", "values": [{"measurement": "IC50", "setting": "[1]", "value": 0.3, "unit": "µM"}, {"measurement": "CD titration result in words", "setting": "poly(dA.dT)", "value": "minor changes in the CD spectrum"}, {"measurement": "Association constant Kapp", "setting": "calf thymus DNA", "value": 591000, "unit": "M⁻¹"}, {"measurement": "Association constant Kapp", "setting": "poly(dAdT)", "value": 950000, "unit": "M⁻¹"}]}, {"compound": "CN(C)CCNC(=O)c1nc(NC(=O)c2nc(NC(=O)c3nc(NCc4ccc(N(CCCl)CCCl)cc4)cn3C)cn2C)cn1C", "note": "[Compound 8, N-(N',N'-dimethylaminoethyl)-1-methyl-4-{1-methyl-4-[4-(4,4-bis-(2-chloroethyl)aminobenzylamino)-1-methylimidazole-2-carboxamido]imidazole-2-carboxamido}imidazole-2-carboxamide]", "values": [{"measurement": "IC50", "setting": "[1]", "value": 0.85, "unit": "µM"}, {"measurement": "CD titration result in words", "setting": "poly(dA.dT)", "value": "did not produce any changes in the CD spectrum"}, {"measurement": "Association constant Kapp", "setting": "calf thymus DNA", "value": 473000, "unit": "M⁻¹"}, {"measurement": "Association constant Kapp", "setting": "poly(dAdT)", "value": 457000, "unit": "M⁻¹"}]}, {"compound": "CN(C)CCNC(=O)c1nc(NC(=O)c2nc(NC(=O)CCCc3ccc(N(CCCl)CCCl)cc3)cn2C)cn1C", "note": "[Compound 9, N-(N',N'-dimethylaminoethyl)-1-methyl-4-{4-[4,4-bis(2-chloroethyl)aminophenyl-1-butanamido]-1-methylimidazole-2-carboxamido}imidazole-2-carboxamide]", "values": [{"measurement": "IC50", "setting": "[1]", "value": 70, "unit": "µM"}, {"measurement": "Association constant Kapp", "setting": "calf thymus DNA", "value": 64000, "unit": "M⁻¹"}, {"measurement": "Association constant Kapp", "setting": "poly(dAdT)", "value": 54000, "unit": "M⁻¹"}]}, {"compound": "CN(C)CCNC(=O)c1nc(NC(=O)c2nc(NC(=O)c3nc(NC(=O)CCCc4ccc(N(CCCl)CCCl)cc4)cn3C)cn2C)cn1C", "note": "[Compound 10, N-(N',N'-dimethylaminoethyl)-1-methyl-4-{1-methyl-4-[4-(4,4-bis(2-chloroethyl)aminophenyl-1-butanamido)-1-methylimidazole-2-carboxamido]imidazole-2-carboxamido}imidazole-2-carboxamide]", "values": [{"measurement": "IC50", "setting": "[1]", "value": 28, "unit": "µM"}, {"measurement": "negative Cotton effect band, ellipticity", "setting": "poly(dA.dT); 315 nm, equimolar titration", "value": -0.8, "unit": "mdeg"}, {"measurement": "Association constant Kapp", "setting": "calf thymus DNA", "value": 22000, "unit": "M⁻¹"}, {"measurement": "Association constant Kapp", "setting": "poly(dAdT)", "value": 13000, "unit": "M⁻¹"}]}]}
